Where only a bound is given, the exact number is not on record here.

The text below walks through data of paper PMC4168161, “A novel approach for the discovery of chemically diverse anti-malarial compounds targeting the Plasmodium falciparum Coenzyme A synthesis pathway” (Malaria Journal, 2014).

For assay [1], the system named is Plasmodium falciparum strain 3D7. Kind of assay: Plasmodium falciparum growth inhibition imaging assay. The format is cell-based. The note with it: for SI (selectivity index): HEK293 IC50 value divided by P. falciparum IC50 value; for IC50: P. falciparum 3D7, 72 hr, n = 3. On the procedure:
In vitro parasite culture was maintained in RPMI with 10 mM Hepes (Life Technologies), 50 μg/ml hypoxanthine (Sigma) and 5 mg/ml AlbuMAX II® (Life Technologies). Human O + erythrocytes were obtained from the Australian Red Cross Blood Service (Agreement No: 13-04QLD-09). The parasites were maintained at 2-8% parasitaemia (% P) at 5% haematocrit (% H), incubated at 37°C, 5% CO2, 5%O2 and 90% N2 and 95% humidity. The well-established P. falciparum imaging assay was modified to allow assessment of chemical rescue with CoA. In brief, sorbitol (5% w/v) synchronization was performed twice, approximately 8 hr apart, on each synchronization day for two consecutive ring cycles, i.e., on day 1 and 3 of assay preparation. On day 2 the culture was split to approximately 2% trophozoite parasitaemia. On day 4 the culture was split to 1-1.5% trophozoite parasitaemia, which yielded approximately 8% ring parasitaemia after 48 hr (on day 5, i.e., the day of the assay set-up). Compound stocks (10 mM in 100% DMSO) were diluted 1:25 in sterile water, less than 24 hr prior to use. An additional 1:10 dilution was performed, resulting in a 1:250 overall compound dilution and a final DMSO concentration of 0.4%. For initial screening, compounds were tested at a final 2 μM concentration. For dose response curves of the active compounds, a semi-logarithmic serial dilution (containing three data points per log) was prepared at 40 μM top concentration for test compounds and 2 μM for the positive control, artemisinin. The known P. falciparum CoA synthesis inhibitor, panthenol, was prepared as a 100 mM solution in 4% DMSO. The final concentration of the dose response curve of panthenol started at 10 mM and was serially diluted down to 100 nM. CoA was dissolved in water. The final CoA concentration for optimal rescue results was determined for each CoA batch and ranged between 0.8-2 mM. Five μl of the 1:25 diluted test compound or control solutions were added to 384-well CellCarrier imaging plates (PerkinElmer). For the chemical rescue, 5 μl of CoA solution were added to ‘rescue’ wells and 5 μl water to all control and reference wells, respectively. Parasite culture was added to a final concentration of 1% parasitaemia (% P) and 0.3% haematocrit (% H). Plates were incubated for 72 hr at 37°C, 5% CO2 and 95% humidity. On day 8 the permeabilization and nuclear staining buffer was prepared in PBS containing 10 μg/ml saponin, 0.01% triton X, 5 mM EDTA (all: Sigma) and 0.5 μg/ml 4′,6-diamidino-2-phenylindole (DAPI; Life Technologies). The plates were left for at least 4 hr (typically overnight), before confocal imaging on an Opera™ High Content Screening Platform (PerkinElmer) at 405 nm excitation with a 20x water objective. Automated primary image analysis was performed concurrent with the imaging process, utilizing an Acapella® software (PerkinElmer) script to determine the number of parasites based on object size and fluorescence intensity. Determination of the % growth compared to controls (2 μM artemisinin as positive and 0.4% DMSO as negative control) was performed in Microsoft® Excel 2010. Statistical analysis including IC50 determination and graphical output was performed in GraphPad Prism® 5 using non-linear regression variable slope curve fitting.

Assay [2] has as its system HEK293 cells. Kind of assay: HEK293 viability assay (resazurin). The format is cell-based, human. The note with it: HEK293, 72 hr, top concentration 40 μM, n = 3. On the procedure:
To assess cytotoxicity of compounds in dose response, a resazurin-based assay was utilized to determine cell viability. In brief, HEK293 cells were grown in DMEM medium (Life Technologies) containing 10% foetal calf serum (FCS; Gibco). Cells were trypsinized, counted and seeded at 2,000 cells per well in 45 μl media into TC-treated 384-well plates (Falcon) and left to adhere overnight at 37°C, 5% CO2 and 95% humidity.
Test compounds were prepared as described above, to give a top final test concentration of 40 μM, 0.4% DMSO. Plates were incubated for 72 hr at 37°C, 5% CO2 and 95% humidity, then the media was removed and replaced by 35 μl of 44 μM resazurin in DMEM without FCS. The plates were incubated for another 4-6 hr at 37°C, 5% CO2 and 95% humidity before reading on an EnVision® Plate Reader (PerkinElmer) using fluorescence excitation/emission settings of 530 nm/595 nm. Determination of the% growth compared to controls (40 μM puromycin as positive and 0.4% DMSO as negative control) was performed in Microsoft® Excel 2010. Statistical analysis including IC50 determination and graphical output was performed in GraphPad Prism® 5 using nonlinear regression variable slope curve fitting.
For orientation: The colour change of resazurin is a common sign of viable cells or microbes.

The test system of assay [3] is 3D7 parasites. Kind of assay: Time course for parasite stage affected and phenotype (Giemsa smears). The format is cell-based, Plasmodium falciparum. Conditions: for parasite stage of action / phenotype: compound at IC80, 0-48 hr. On the procedure:
The principle of the P. falciparum imaging assay described above was used, with the exception that the parasite synchronization was adjusted to yield parasites synchronized to a 2-hr window as established in-house. In brief, sorbitol synchronization was performed twice (approximately 8 hr apart) on day 1 and only once on day 3 (around 10.00). Schizonts observed on day 4 were left to mature and when rings were first observed, the mature schizonts were isolated using a MACS® column (Miltenyi Biotec). The purified schizonts were incubated for 2 hr at 37°C, 5% CO2 and 5% O2 and 90% N2 on a shaker. The obtained 0-2 hr old ring stage parasites were isolated by removing the remaining schizonts by flow through a MACS® column and the highly synchronized rings obtained were seeded in the assay plates with the compounds as described above. At each time point, one whole columns (16 wells) of identically treated parasites, i.e., 0.4% DMSO as control, compound at its individual IC80 or compound at IC80 plus CoA, were pooled and centrifuged. A smear was made from the pellet and stained with Giemsa (Sigma) for assessment the phenotype of treated parasites with or without supplementation of 0.8 mM CoA in comparison to DMSO controls.
The parasite viability assay used above is an endpoint assay that spans two development cycles of the parasite. To investigate the parasite stage of action of the identified compounds and the phenotype of compound treated parasites, a light microscopy-based time course study was undertaken. The seven compounds of submicromolar activity were added at time point t0 at their respective IC80 concentrations, with and without the addition of 0.8 mM CoA. The 3D7 parasites used in this experiment were age synchronized to within a 2-hr window of the ring stage. Due to assay preparation time, the parasite age at t0 therefore ranged from 0.5 hr to 2.5 hr.
At t0, t18, t24 and t48 parasite cultures for all conditions were centrifuged and Giemsa-stained blood smears were prepared. The 18-hr treatment time point was specifically chosen, since it was expected to see the transition between ring and trophozoite stage in control cultures around this time point (parasite age range 18.5 hr to […]). Therefore any delay in the transition from ring to trophozoite stage under treatment with the compounds was expected to be discernible at this time point.

[4] abbreviates: compound at IC80 plus 0.8 mM CoA.
[5] abbreviates: compound at IC80 plus 0.8 mM CoA, t24.
[6] abbreviates: compound at IC80 plus 0.8 mM CoA, t48.

On to `Cc1csc(Sc2ncnc3sccc23)n1` [Amb180780], for which the “SI (selectivity index)” value in assay [1] is given as ~ 333. Besides, the IC50 in assay [1] is 0.12 µM; in assay [2], approximately 40 µM. The “compound-treated parasites able to progress from the ring to the trophozoite stage” value in assay [3] (compound at IC80) is given as “Less than 13%”. Moreover, the “parasite stage of action / phenotype” value in assay [3] was “arrest parasite development at the ring stage”. Besides, the “dead or dying parasites (relative parasitaemia)” value in assay [3] (compound at IC80, t48) is 28.6%; in assay [3] (setting [5]) it was 20%; in assay [3] (setting [6]), “control levels”. For the same compound, the “CoA rescue of stage progression / phenotype” value in assay [3] (setting [4]) was “rescued very well by CoA addition”.

As to `CC(=O)c1ccc2c3c(onc13)-c1ccccc1C2=O` [Amb3377585], in assay [1], the “SI (selectivity index)” value worked out at 18 and the half-inhibitory concentration (IC50) is 0.15 µM. The IC50 in assay [2] came out at 2.75 µM. Also, the “parasite stage of action / phenotype” value in assay [3] is “killing both the ring and the trophozoite stage of the parasite from approximately t24”. For the same compound, the “death rate of parasites (relative parasitaemia)” value in assay [3] (compound at IC80, from t24 onwards) came to 49%. In assay [3] (compound at IC80, t48), the “abnormal trophozoites as share of all counted living trophozoites” value came out at 51% and the “relative parasitaemia of trophozoites showing abnormal morphology” value amounted to 30.5%. The “CoA rescue of stage progression / phenotype” value in assay [3] (setting [4]) is “very good rescue of parasite development, death rates and morphology”.

In the case of `CCOc1ccc(Nc2c3ccccc3nc3ccccc23)cc1.Cl` [MMV000304/Amb636705], the “SI (selectivity index)” value in assay [1] is 0.8; in assay [1] (listed as MMV000304), “no parasite specificity”. Besides, the IC50 came out at 1.21 µM in assay [1] and 1 µM in assay [2].

`CCc1ccc(Nc2cc(C)c3ccc(O)cc3n2)cc1.Cl` [MMV000570/C614-0191]: the “SI (selectivity index)” value in assay [1] is ~ 54. The IC50 is 0.74 µM in assay [1] and approximately 40 µM in assay [2]. Also, the “parasite stage of action / phenotype” value in assay [3] is “affects both the development of the ring and trophozoite stage of the parasite”. The “dead or dying parasites (relative parasitaemia)” value was “around 28%” in assay [3] (compound at IC80, t24); approximately 20% in assay [3] (compound at IC80, t48); 13.4% in assay [3] (setting [5]); 8.3% in assay [3] (setting [6]). Besides, in assay [3] (setting [4]), the “CoA rescue of stage progression / phenotype” value was “Addition of CoA did not alleviate this developmental delay”.

In the case of `COc1ccc2c(=O)cc(C(Cl)(Cl)Cl)oc2c1` [MMV665820/5534045], in assay [1], the “SI (selectivity index)” value worked out at 6.2 and the IC50 came to 0.58 µM. This compound gave an IC50 in assay [2] of 3.6 µM. Also, the “parasite stage of action / phenotype” value in assay [3] was “main compound action is on the trophozoite stage”. The “relative parasitaemia of trophozoites showing abnormal morphology” value in assay [3] (compound at IC80, t24) was determined as 42.9%. Further, in assay [3] (compound at IC80, t48), the “relative parasitaemia of dead or dying trophozoites” value came out at 13.8% and the “relative parasitaemia of trophozoites showing abnormal morphology” value was 26.6%. For the same compound, the “CoA rescue of stage progression / phenotype” value in assay [3] (setting [4]) is “CoA addition effectively rescued both parasite development and morphology”.

As to `CC(C)=NOC(=O)c1c(C)noc1-c1snnc1C` [SPB03400], the IC50 is 0.45 µM in assay [1] and more than 40 µM in assay [2]. The “parasite stage of action / phenotype” value in assay [3] is “No change in the relative parasitaemia of rings or trophozoites compared to the untreated controls”. In assay [3] (compound at IC80, t48), the “ring form parasites showing abnormal morphologies” value was “around 50%”.

Turning to `CC1=CC(=O)C(C(C)C)=C/C1=N/OS(=O)(=O)c1ccccc1` [STK 740987], in assay [1], the “SI (selectivity index)” value was more than 105 and the IC50 is 0.38 µM. Also, the IC50 in assay [2] was more than 40 µM. In addition, in assay [3], the “parasite stage of action / phenotype” value was “no change in the stage composition of rings and trophozoites compared to the controls”. Also, the “dead or dying parasites (relative parasitaemia)” value in assay [3] (compound at IC80, t24) is “around 16%”.

Broadly, the IC50 is the concentration that inhibits the measured activity by half.
